Assays:
ERK1 = target: T1, ERK1 (Homo sapiens, UniProt P27361); assay: ERK1 HTRF (biochemical) assay
T1 construct: purchased Jubilant Biosys
Protocol: ERK1 and ERK2 HTRF (Biochemical) Assays
These assays employed a homogeneous time resolved fluorescence (HTRF) technique. […] The plate was incubated at room temperature for 60 min with shaking. […] The IC50 values (half maximal inhibitory concentration values) were subsequently determined using a sigmoidal dose-response curve (variable slope) in GraphPad Prism® 5 software.

ERK2 = target: T2, ERK2 (Homo sapiens, UniProt P28482); assay: ERK2 HTRF (biochemical) assay
T2 construct: purchased Jubilant Biosys
T2 sequence (P28482 whole entry): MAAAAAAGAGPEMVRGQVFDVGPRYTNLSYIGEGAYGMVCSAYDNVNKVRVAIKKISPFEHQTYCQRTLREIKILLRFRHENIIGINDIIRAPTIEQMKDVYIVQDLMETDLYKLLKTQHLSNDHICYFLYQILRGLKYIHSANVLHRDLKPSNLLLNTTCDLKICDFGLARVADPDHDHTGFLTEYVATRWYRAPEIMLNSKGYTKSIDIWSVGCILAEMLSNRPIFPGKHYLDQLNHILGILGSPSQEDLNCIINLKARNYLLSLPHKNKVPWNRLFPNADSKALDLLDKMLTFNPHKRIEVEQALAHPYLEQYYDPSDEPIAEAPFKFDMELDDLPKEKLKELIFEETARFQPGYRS
How it was run: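 Compounds were tested as half-log dilutions from 0.0005 to 10 uM in Tris pH 7.5/MgCl2 buffer, with a substrate mix of 1 uM biotin-MBP peptide and 24 uM ATP and an enzyme mix of 25 nM ERK2. Reaction ran 60 min at room temperature. Phospho-MBP was detected by HTRF (Eu-anti-phospho-MBP/SA-APC, 665/620 nm), and IC50 was fitted with a variable-slope sigmoidal curve.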

[1] = system: human lung carcinoma xenograft model (A549; harboring KRAS mutation); assay: A549 human lung carcinoma xenograft model, tumor growth inhibition; format: in vivo, mice; conditions: 50 mg/kg BID orally for 20 days
Protocol: In Vivo Studies in Tumor Xenograft Models
Tumor Cell Implantation and Randomization of Animals
Foxn1 nu/nu strain of female mice (obtained from Charles River Laboratories, USA), 8-10 weeks of age, body weight range 23-25 g, were used for the tumor xenograft efficacy studies. Human cancer cell lines (such as melanoma A375, colorectal HT29, pancreatic BxPC3, colorectal HCT116, and lung A549) were first grown in vitro, and then about five million (5×10^6) of these cells in 100 μL of serum free medium were mixed with an equal amount of matrigel, and the entire mixture was injected subcutaneously at the right flank region of mice. The tumors were measured with Vernier calipers periodically after the first week of injection. When the tumor volume reached 120-150 mm^3 (about 3-4 weeks after injection) the animals were randomized into different groups so that their tumor volume was approximately the same in all groups.
Determination of In Vivo Efficacy of Tumor Growth Inhibition
For PO dosing, the compounds were prepared in a formulation containing 0.5% Methyl cellulose and 0.01% Tween 80. For IV, SC, or IP dosing, the compounds were prepared in 6% solutol-ethanol (1:1), 6% DMSO and 88% saline. Animals were dosed with compounds prepared in specific formulations via PO, IP or SC route either QD or BID at the required doses. Tumors size and body weights were measured twice or thrice in a week. Tumors were harvested at the end of the study after euthanizing the animals according to approved protocols. […]
Changes in tumor volume (Δ volumes) for each treated (T) and control (C) group were calculated by subtracting the mean tumor volume on the first day of treatment (starting day) from the mean tumor volume on the specified observation day. […]
Percentage tumor growth inhibition was calculated as [100−% T/C]. Percentage body weight change was calculated as [(Body weight on specified observation day−Body weight on starting day)/Body weight on starting day]×100.

T1 sequence (P27361 whole entry): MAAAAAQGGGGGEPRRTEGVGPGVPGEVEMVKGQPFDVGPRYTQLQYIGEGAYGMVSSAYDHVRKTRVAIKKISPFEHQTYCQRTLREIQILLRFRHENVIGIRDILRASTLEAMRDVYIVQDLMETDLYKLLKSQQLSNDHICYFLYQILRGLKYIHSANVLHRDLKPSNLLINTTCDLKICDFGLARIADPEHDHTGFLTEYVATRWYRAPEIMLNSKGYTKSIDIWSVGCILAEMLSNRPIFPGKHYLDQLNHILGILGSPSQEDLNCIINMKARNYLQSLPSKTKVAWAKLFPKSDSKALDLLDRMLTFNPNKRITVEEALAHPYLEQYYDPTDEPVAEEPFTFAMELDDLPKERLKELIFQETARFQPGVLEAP

## Cc1cnc(N[C@H]2CCOC2)nc1-n1cnc(C(=O)N[C@H](CO)c2cccc(Cl)c2)c1 [Compound 192, N-((S)-1-(3-Chlorophenyl)-2-hydroxyethyl)-1-(5-methyl-2-(((S)-tetra-hydrofuran-3-yl)amino)pyrimidin-4-yl)-1H-imidazole-4-carboxamide]
other
  melting point: 117 °C
ERK1; HTRF
  IC50: < 50 nM
ERK2; HTRF
  IC50: ≤ 50 nM

## Cc1cnc(NC2CCOCC2)nc1-n1cnc(C(=O)N[C@H](CN)c2cccc(Cl)c2)c1.O=S(=O)(O)c1ccccc1 [Example 300, (S)-N-(2-amino-1-(3-chlorophenyl)-ethyl)-1-(5-methyl-2-((tetrahydro-2H-pyran-4-yl)amino)-pyrimidin-4-yl)-1H-imidazole-4-carboxamide benzenesulfonic acid salt]
[1]
  body weight loss: no significant body weight loss

## Cc1cnc(NC2CCOCC2)nc1-n1cnc(C(=O)N[C@H](CN)c2cc(F)cc(Cl)c2)c1.O=S(=O)(O)c1ccccc1 [Example 302, (S)-N-(2-amino-1-(3-chloro-5-fluoro-phenyl)ethyl)-1-(5-methyl-2-((tetrahydro-2H-pyran-4-yl)amino)-pyrimidin-4-yl)-1H-imidazole-4-carboxamide benzenesulfonic acid salt]
[1]
  body weight loss: no significant body weight loss

## Cc1cnc(Nc2ccc(F)cc2)cc1-n1cnc(C(=O)NC(CN)c2ccccc2)c1 (centres unmarked) [Compound 191, N-(2-amino-1-phenylethyl)-1-(2-((4-fluorophenyl)amino)-5-methylpyridin-4-yl)-1H-imidazole-4-carboxamide]
other
  melting point: 154.7 °C
ERK1; HTRF
  IC50: < 50 nM
ERK2; HTRF
  IC50: 50 to 100 nM

## Cc1cnc(Nc2ccc3c(c2)OCO3)nc1-n1cc(NC(=O)N[C@H](CO)c2ccccc2)cn1 [Compound 55, (S)-1-(1-(2-(benzo[d][1,3]dioxol-5-ylamino)-5-methylpyrimidin-4-yl)-1H-pyrazol-4-yl)-3-(2-hydroxy-1-phenylethyl)urea]
other
  melting point: 208.3 °C
ERK1; HTRF
  IC50: 50 to 100 nM
ERK2; HTRF
  IC50: 50 to 100 nM

## Cc1cnc(NC2CC(F)(F)C2)nc1-n1cnc(C(=O)N[C@H](CN)c2cccc(Cl)c2)c1.O=S(=O)(O)c1ccccc1 [Example 304, (S)-N-(2-amino-1-(3-chlorophenyl)-ethyl)-1-(2-((3,3-difluorocyclobutyl)amino)-5-methyl-pyrimidin-4-yl)-1H-imidazole-4-carboxamide benzenesulfonic acid salt]
[1]
  body weight loss: no significant body weight loss

## O=C(NC(CO)c1cccc(Cl)c1)c1cn(-c2ccnc(Nc3ccccc3)c2)cn1 (centres unmarked) [Compound 77, N-(1-(3-chlorophenyl)-2-hydroxyethyl)-1-(2-(phenylamino)pyridin-4-yl)-1H-imidazole-4-carboxamide]
other
  melting point: 130 °C
ERK1; HTRF
  IC50: < 50 nM
ERK2; HTRF
  IC50: ≤ 50 nM

## Cc1cnc(Nc2ccc(F)cc2)cc1-n1ccc(C(=O)NC(CN)c2cccc(Cl)c2)c1 (centres unmarked) [Compound 159, N-(2-Amino-1-(3-chlorophenyl)ethyl)-1-(2-((4-fluorophenyl)amino)-5-methylpyridin-4-yl)-1H-pyrrole-3-carboxamide]
other
  melting point: 118.1 °C
ERK1; HTRF
  IC50: 50 to 100 nM
ERK2; HTRF
  IC50: ≤ 50 nM

## Cc1cnc(N[C@H]2CCOC2)nc1-n1cnc(C(=O)NCc2ccc(Cl)c(Cl)c2)c1 [Example 314, (S)-N-(3,4-dichlorobenzyl)-1-(5-methyl-2-((tetrahydrofuran-3-yl)amino)pyrimidin-4-yl)-1H-imidazole-4-carboxamide]
ERK1; HTRF biochemical assay
  IC50: < 50 nM
ERK2; HTRF biochemical assay
  IC50: ≤ 50 nM

## O=C(NC(CO)c1cccc(Cl)c1)c1ccn(-c2ccnc(Nc3ccc(F)cc3Cl)n2)c1 (centres unmarked) [Compound 111, 1-(2-((2-chloro-4-fluorophenyl)amino)pyrimidin-4-yl)-N-(1-(3-chlorophenyl)-2-hydroxyethyl)-1H-pyrrole-3-carboxamide]
ERK1; HTRF
  IC50: 50 to 100 nM
ERK2; HTRF
  IC50: ≤ 50 nM

## Cc1cnc(Nc2ccc(F)c(N3CCOCC3)c2)nc1-n1cnc(C(=O)NC(CN)c2cccc(Cl)c2)c1 (centres unmarked) [Example 256, N-(2-amino-1-(3-chlorophenyl)ethyl)-1-(2-((4-fluoro-3-morpholinophenyl)amino)-5-methyl-pyrimidin-4-yl)-1H-imidazole-4-carboxamide]
ERK1; HTRF
  IC50: < 50 nM
ERK2; HTRF
  IC50: ≤ 50 nM

## Cc1cnc(NC2CCOCC2)nc1-n1cnc(C(=O)NCc2nc(Cl)sc2C)c1 [Example 328, N-((2-chloro-5-methylthiazol-4-yl)methyl)-1-(5-methyl-2-((tetrahydro-2H-pyran-4-yl)amino)-pyrimidin-4-yl)-1H-imidazole-4-carboxamide]
ERK1; HTRF biochemical assay
  IC50: < 50 nM
ERK2; HTRF biochemical assay
  IC50: ≤ 50 nM

## Cc1cnc(NC2COC2)nc1-n1cnc(C(=O)N[C@H](CN)c2cccc(Cl)c2)c1 [Example 268, (S)-N-(2-amino-1-(3-chlorophenyl)-ethyl)-1-(5-methyl-2-(oxetan-3-ylamino)pyrimidin-4-yl)-1H-imidazole-4-carboxamide]
ERK1; HTRF
  IC50: < 50 nM
ERK2; HTRF
  IC50: ≤ 50 nM

## Cc1cnc(NC2CC(F)(F)C2)nc1-n1cnc(C(=O)N[C@@H](CN)c2cc(F)cc(Cl)c2)c1 [Example 289, (R)-N-(2-amino-1-(3-chloro-5-fluoro-phenyl)ethyl)-1-(2-((3,3-difluoro-cyclobutyl)amino)-5-methylpyrimidin-4-yl)-1H-imidazole-4-carboxamide]
ERK1; HTRF
  IC50: 100 to 500 nM
ERK2; HTRF
  IC50: 50 to 100 nM

## Cc1cnc(NC2CCN(C)C2)nc1-n1ccc(C(=O)N[C@H](CO)c2cccc(Cl)c2)c1 (stereo partly drawn) [Compound 208, N-((S)-1-(3-chlorophenyl)-2-hydroxyethyl)-1-(5-methyl-2-((1-methylpyrrolidin-3-yl)amino)pyrimidin-4-yl)-1H-pyrrole-3-carboxamide]
ERK1; HTRF
  IC50: < 50 nM
ERK2; HTRF
  IC50: ≤ 50 nM

## Cc1cnc(Nc2cccc(N3CCOCC3)c2)nc1-n1cnc(C(=O)N[C@H](CN)c2cccc(Cl)c2)c1 [Example 272, (S)-N-(2-amino-1-(3-chlorophenyl)ethyl)-1-(5-methyl-2-((3-morpholino-phenyl)amino)pyrimidin-4-yl)-1H-imidazole-4-carboxamide]
ERK1; HTRF
  IC50: < 50 nM
ERK2; HTRF
  IC50: ≤ 50 nM

## Cc1cnc(N[C@@H]2CCOC2)nc1-n1ccc(C(=O)N[C@H](CO)c2cccc(Cl)c2)c1 [Compound 162, N-((S)-1-(3-chlorophenyl)-2-hydroxyethyl)-1-(5-methyl-2-(((R)-tetrahydrofuran-3-yl)amino)pyrimidin-4-yl)-1H-pyrrole-3-carboxamide]
ERK1; HTRF
  IC50: < 50 nM
ERK2; HTRF
  IC50: ≤ 50 nM

## Cc1cnc(NC2CCOCC2)nc1-n1cnc(C(=O)NCc2ccccc2CO)c1 [Example 287, N-(2-(hydroxy-methyl)benzyl)-1-(5-methyl-2-((tetrahydro-2H-pyran-4-yl)amino)-pyrimidin-4-yl)-1H-imidazole-4-carboxamide]
ERK1; HTRF
  IC50: < 50 nM
ERK2; HTRF
  IC50: ≤ 50 nM

## Cc1cnc(Nc2ccc3c(c2)OCCO3)nc1-n1ccc(C(=O)NC(CO)c2ccccc2)c1 (centres unmarked) [Compound 131, 1-(2-((2,3-dihydrobenzo[b] [1,4]dioxin-6-yl)-amino)-5-methyl-pyrimidin-4-yl)-N-(2-hydroxy-1-phenylethyl)-1H-pyrrole-3-carboxamide]
ERK1; HTRF
  IC50: < 50 nM
ERK2; HTRF
  IC50: ≤ 50 nM

## Cc1cnc(Nc2ccc3c(c2)OCO3)cc1-n1cnc(C(=O)NC(CO)c2cccc(Cl)c2)c1 (centres unmarked) [Compound 88, 1-(2-(benzo[d][1,3]dioxol-5-ylamino)-5-methylpyridin-4-yl)-N-(1-(3-chloro-phenyl)-2-hydroxy-ethyl)-1H-imidazole-4-carboxamide]
ERK1; HTRF
  IC50: < 50 nM
ERK2; HTRF
  IC50: ≤ 50 nM

## Cc1cnc(Nc2ccc3c(c2)OC(F)(F)O3)cc1-n1cnc(C(=O)NC(CO)c2cccc(Cl)c2)c1 (centres unmarked) [Compound 90, N-(1-(3-chlorophenyl)-2-hydroxyethyl)-1-(2-((2,2-difluoro-benzo[d][1,3]dioxol-5-yl)amino)-5-methylpyridin-4-yl)-1H-imidazole-4-carboxamide]
ERK1; HTRF
  IC50: 100 to 500 nM
ERK2; HTRF
  IC50: ≤ 50 nM

From patent publication US9896445B2, “Heterocyclic inhibitors of ERK1 and ERK2 and their use in the treatment of cancer” (Asana Biosciences, LLC, priority 2015, dated 2018)
